From the supplement of paper PMC10307832

What was measured:
Assay in all cases: relative viability (nuclei count vs DMSO), 5 days (fraction); higher = more cells survive
[1] = compound: CC1=C(N=C(N=C1N)[C@H](CC(=O)N)NC[C@@H](C(=O)N)N)C(=O)N[C@@H]([C@H](C2=CN=CN2)OC3C(C(C(C(O3)CO)O)O)OC4C(C(C(C(O4)CO)O)OC(=O)N)O)C(=O)N[C@H](C)[C@H]([C@H](C)C(=O)N[C@@H]([C@@H](C)O)C(=O)NCCC5=NC(=CS5)C6=NC(=CS6)C(=O)NCCC[S+](C)C)O [Bleomycin] + CC(C)C[C@H](NC(=O)[C@H](Cc1ccccc1)NC(=O)c1cnccn1)B(O)O [Bortezomib] (partner 0.002 µM); conditions: main component drawn
How it was run: (§1)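 Each reported value is a median over duplicate plates. It expresses relative viability: treated-well nuclei count divided by vehicle-well nuclei count. Lung cancer cell lines in 1536-well plates were dosed by pin tool a day after seeding, alone with one drug or with a fixed anchor-drug dose plus five library-drug doses (not always all listed) in √10 steps, and nuclei were counted after 5 days.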

[2] = compound: CC1=C(N=C(N=C1N)[C@H](CC(=O)N)NC[C@@H](C(=O)N)N)C(=O)N[C@@H]([C@H](C2=CN=CN2)OC3C(C(C(C(O3)CO)O)O)OC4C(C(C(C(O4)CO)O)OC(=O)N)O)C(=O)N[C@H](C)[C@H]([C@H](C)C(=O)N[C@@H]([C@@H](C)O)C(=O)NCCC5=NC(=CS5)C6=NC(=CS6)C(=O)NCCC[S+](C)C)O [Bleomycin] + O=C(c1cc(Cc2n[nH]c(=O)c3ccccc23)ccc1F)N1CCN(C(=O)C2CC2)CC1 [Olaparib] (partner 8 µM); conditions: main component drawn
How it was run: as §1

[3] = compound: COc1cc([C@@H]2c3cc4c(cc3[C@@H](O[C@@H]3O[C@@H]5CO[C@@H](C)O[C@H]5[C@H](O)[C@H]3O)[C@H]3COC(=O)[C@H]23)OCO4)cc(OC)c1O [Etoposide] + Cc1nc(Nc2ncc(C(=O)Nc3c(C)cccc3Cl)s2)cc(N2CCN(CCO)CC2)n1 [Dasatinib] (partner 0.075 µM)
How it was run: as §1

[4] = compound: CC1=C(N=C(N=C1N)[C@H](CC(=O)N)NC[C@@H](C(=O)N)N)C(=O)N[C@@H]([C@H](C2=CN=CN2)OC3C(C(C(C(O3)CO)O)O)OC4C(C(C(C(O4)CO)O)OC(=O)N)O)C(=O)N[C@H](C)[C@H]([C@H](C)C(=O)N[C@@H]([C@@H](C)O)C(=O)NCCC5=NC(=CS5)C6=NC(=CS6)C(=O)NCCC[S+](C)C)O [Bleomycin] + CS(=O)(=O)N1CCN(Cc2cc3nc(-c4cccc5[nH]ncc45)nc(N4CCOCC4)c3s2)CC1 [Pictilisib] (partner 1 µM); conditions: main component drawn
How it was run: as §1

Cell Line	relative viability ([1]; first compound 0.01 µM)	relative viability ([1]; first compound 0.03162 µM)	relative viability ([1]; first compound 0.1 µM)	relative viability ([1]; first compound 0.3162 µM)	relative viability ([1]; first compound 1 µM)	relative viability ([2]; first compound 0.01 µM)	relative viability ([2]; first compound 0.03162 µM)	relative viability ([2]; first compound 0.1 µM)	relative viability ([2]; first compound 0.3162 µM)	relative viability ([2]; first compound 1 µM)	relative viability ([3]; first compound 0.01 µM)	relative viability ([3]; first compound 0.03162 µM)	relative viability ([3]; first compound 0.1 µM)	relative viability ([3]; first compound 0.3162 µM)	relative viability ([3]; first compound 1 µM)	relative viability ([4]; first compound 0.01 µM)	relative viability ([4]; first compound 0.03162 µM)	relative viability ([4]; first compound 0.1 µM)	relative viability ([4]; first compound 0.3162 µM)	relative viability ([4]; first compound 1 µM)
NCI-H647	0.39	0.299	0.223	0.118	0.0632	0.161	0.148	0.195	0.0429	0.0447	0.157	0.161	0.174	0.145	0.036	0.251	0.254	0.191	0.105	0.0791
A-427	0.857	0.817	0.725	0.167	0.213	0.58	0.566	0.455	0.274	0.24	0.702	0.818	0.435	0.446	0.2	0.58	0.488	0.492	0.155	0.174
EMC-BAC-2	0.927	0.92	0.868	0.319	0.279	0.35	0.428	0.404	0.324	0.221	0.319	0.333	0.193	0.16	0.112	0.498	0.489	0.427	0.282	0.222
NCI-H460	0.331	0.286	0.103	0.0317	0.0212	0.212	0.159	0.12	0.0368	0.073	0.432	0.509	0.285	0.132	0.0414	0.307	0.285	0.244	0.0358	0.1
LCLC-103H	1.07	1.12	1.1	0.556	0.467	0.717	0.735	0.724	0.56	0.384	0.466	0.482	0.417	0.546	0.42	0.638	0.573	0.54	0.34	0.255
HCC-827	0.948	0.918	0.9	0.464	0.357	0.522	–	0.446	0.209	0.161	0.243	0.298	0.177	0.279	0.188	0.921	0.787	0.916	0.512	0.399
NCI-H1355	1.13	1.24	1.03	0.376	0.262	0.669	0.71	0.676	0.341	0.228	0.673	0.692	0.376	0.622	0.251	0.425	0.458	0.358	0.214	0.214
NCI-H1734	0.732	0.664	0.725	0.239	0.226	0.505	0.451	0.377	0.222	0.148	0.415	0.449	0.312	0.436	0.21	0.382	0.411	0.357	0.267	0.22
HARA	1	1.09	1.04	0.514	0.239	0.733	0.942	0.701	0.247	0.351	0.263	0.298	0.259	0.23	0.181	0.333	0.557	0.428	0.27	0.184
HCC-15	0.914	1.01	0.815	0.299	0.318	0.629	0.689	0.508	0.224	0.238	0.623	0.64	0.537	0.261	0.0797	0.685	0.693	0.627	0.199	0.219
LCLC-97TM1	0.173	0.17	0.0959	0.077	0.0823	0.211	0.258	0.148	0.0871	0.0615	0.858	0.943	0.933	0.681	0.179	0.141	0.119	0.141	0.0993	0.0953
SK-LU-1	0.939	1.04	0.915	0.293	0.274	0.38	0.436	0.397	0.307	0.29	0.172	0.177	0.172	0.14	0.122	0.434	0.638	0.474	0.352	0.282
NCI-H1651	0.91	0.898	0.664	0.457	0.306	0.177	0.153	0.172	0.116	0.122	0.282	0.426	0.385	0.189	0.0972	0.576	0.517	0.44	0.249	0.153
NCI-H2170	–	–	–	–	–	0.508	0.523	0.397	0.361	0.3	0.678	0.658	0.353	0.619	0.401	0.376	0.304	0.297	0.256	0.262
